Data: patent US20250152528A1, “RAPID RELIEF SPRAY” (HALEON US HOLDINGS LLC, priority 2022, published 2025)
Structures can show the parent of a compound that is named as a salt.

Columns and labels:
[1] = Two weak acid combinations with lidocaine citrate: pH, precipitation and stability at 4° C. for 3 months; settings: for Observation: appearance of solution; for Time to Lidocaine Citrate Precipitation: kept at 4° C. for 3 months; for pH: lidocaine citrate solution (25 wt. % ethanol, 15 wt. % glycerin, 2.5 wt. % propylene glycol) with 2 wt. % acidifying agent; for colour of solution after change from clear: ambient conditions
Description: The pH was then measured, and stability was tested by keeping the resulting solutions at 4° C. for 3 months.

[2] = has been observed; in aqueous solutions; cited from earlier work
[3] = cited from earlier work
[4] = Crystallization inhibitors and free base lidocaine crystallization in low pH solutions; format: physicochemical; settings: 5.0 wt. % lidocaine free base, Example 1 composition; 0.5, 1.0, 2.0 wt. % Kollidon VA 64, PVP K-90, PVP K-25 or PVP K-30; pH=3.5 and pH=4 by excess citric acid; 24 samples
[5] = 5.0 wt. % lidocaine free base, 3.6 wt. % citric acid, 15 wt. % glycerin, 25 wt. % ethanol, water; pH adjusted between 4.5 to 3.5 with excess citric acid at 25° C.
[6] = 5 wt. % lidocaine free base in water with 24 wt. % isopropyl alcohol, 54 wt. % ethanol, or 10 wt. % isopropyl alcohol and 20 wt. % ethanol; pH 4.0 and 3.5 by excess citric acid
[7] = 2% acidifying agent, pH range of 4.2 to 3.3

| Compound | Observation ([1]; 2 wt. % acidifying agent) | Time to Lidocaine Citrate Precipitation ([1]; 2 wt. % acidifying agent) | pH [1] | further results |
| --- | --- | --- | --- | --- |
| CC(=O)O [Acetic Acid] | Clear | Not observed | 4.00 |  |
| O=C(O)CCCCC(=O)O [Adipic Acid] |  |  |  | prevention of lidocaine citrate precipitation ([1]; 5% acidifying agent): did not prevent precipitation; Observation ([1]; 5% acidifying agent): Clear; Time to Lidocaine Citrate Precipitation ([1]; 5% acidifying agent): 2 weeks |
| O=C1O[C@H]([C@@H](O)CO)C(O)=C1O [Ascorbic acid] |  |  |  | prevention of lidocaine citrate precipitation ([1]; 5% acidifying agent): prevented lidocaine citrate precipitation; colour of solution after change from clear ([1]; 5% acidifying agent): orange; Observation ([1]; 5% acidifying agent): Oxidized; Time to Lidocaine Citrate Precipitation ([1]; 5% acidifying agent): Not observed |
| O=C(O)/C=C/C(=O)O [Fumaric acid] | Oxidized | Not observed | 3.72 | colour of solution after change from clear ([1]; 2% acidifying agent): pale yellow solutions; prevention of lidocaine citrate precipitation [1, 7]: prevented lidocaine citrate precipitation |
| O=C(O)[C@H](O)[C@@H](O)C(=O)O [L-Tartaric acid] | Clear | Not observed | 3.71 |  |
| CC(O)C(=O)O (stereo not shown) [Lactic acid] | Clear | Not observed | 4.05 |  |
| O=C(O)/C=C\C(=O)O [Maleic acid] | Oxidized | Not observed | 3.32 | colour of solution after change from clear ([1]; 2% acidifying agent): pale yellow solutions; prevention of lidocaine citrate precipitation [1, 7]: prevented lidocaine citrate precipitation |
| O=C(O)CC(O)C(=O)O (stereo not shown) [Malic Acid] | Clear | Not observed | 3.93 | amount at which irritant to a healthy skin [2]: ≥ 5 wt. % |
| CNC[C@H](O)c1cccc(O)c1 [Phenylephrine] |  |  |  | pH of solutions in which stable ([3]; background statement): ≤ 4.0 |
| O=C(O)CCC(=O)O [Succinic acid] | Clear | Not observed | 4.23 |  |
| CCN(CC)CC(=O)Nc1c(C)cccc1C [lidocaine free base, lidocaine] |  |  |  | lidocaine crystallization with crystallization inhibitors [4]: thick layer of lidocaine crystallization; pH at which precipitation of lidocaine starts [5]: 4.0 |
| CNC[C@H](O)c1cccc(O)c1 [phenylephrine HCl] |  |  |  | pH of solutions in which unstable ([3]; approximately): > 4 |
| lidocaine citrate |  |  |  | crystallization in aqueous alcohol cosolvents [6]: crystallized out of all samples as an opaque layer; pH of lower pH solutions in which the salt crystallizes out (citrate salt generated in situ): ≤ 4.5 |
| lidocaine malate |  |  |  | crystallization at low pH on storage (1:1 molar lidocaine free base and malic acid in water, excess malic acid to pH 3.6, several weeks at 4° C.): No lidocaine malate crystallization was observed |
